# Measured values as given in patent US9211290B2, “Solid dispersions of amorphous paroxetine mesylate” (priority 2012, dated 2015).
# Columns and labels:
# [1] = Physical stability of solid dispersions exposed in open containers to temperature/humidity stress (PLM, XRPD); assay type: physicochemical
# Description: X-ray Powder Diffraction (XRPD): XRPD patterns were collected using a PANalytical X'Pert Pro diffractometer. The specimen was analyzed using Cu radiation produced using an Optix long fine-focus source. An elliptically graded multilayer mirror was used to focus the Cu Kα X-rays of the source through the specimen and onto the detector. The specimen was sandwiched between 3-micron thick films, analyzed in transmission geometry, and rotated to optimize orientation statistics. Soller slits were used for the incident and diffracted beams to minimize axial divergence. Diffraction patterns were collected using a scanning position-sensitive detector (X'Celerator) located 240 mm from the specimen. Prior to the analysis, a silicon specimen (NIST standard reference material 640d) was analyzed to verify the position of the silicon 111 peak.
# Polarized Light Microscopy (PLM): Polarized light microscopy was performed using a Leica DM LP microscope equipped with Spot Insight color camera (model 3.2.0). […]
# Physical stability experiments were conducted by exposing the dispersions in open containers at Room Temperature (RT) and at elevated temperature and different humidities (expressed as relative humidity, RH). […]
# Physical stability was evaluated visually at RT/75% RH after approximately 24 h by PLM for evidence of birefringence and extinction indicative of crystalline material. […]
# [2] = Aqueous solubility of paroxetine mesylate Form A; assay type: physicochemical; settings: water
Structure (SMILES),"Acceptable Physical Stability? RT/58% RH 3 d ([1]; 25° C./58% RH used instead of RT/58% RH (footnote b), 3 d)","Acceptable Physical Stability? 60° C./75% RH 2 h ([1]; 60° C./75% RH, 2 h)",solubility [2]
"CS(=O)(=O)O.Fc1ccc([C@@H]2CCNC[C@H]2COc2ccc3c(c2)OCO3)cc1 [Example 1-2, paroxetine mesylate]",N,N,–
"CS(=O)(=O)O.Fc1ccc([C@@H]2CCNC[C@H]2COc2ccc3c(c2)OCO3)cc1 [paroxetine mesylate Form A, paroxetine mesylate]",–,–,> 1000 mg/mL
